The record followed here is publication PMC11558128 (Advanced Science, 2024).

Common to all, as to experiment: cell-based
Experiment [1] has as its target T1, rKv4.2 V278A (Rattus norvegicus, UniProt Q63881, V278A).
T1 construct: expressed in transfected cells; host or cells: HEK293T
T1 sequence (Q63881 1-630 V278A): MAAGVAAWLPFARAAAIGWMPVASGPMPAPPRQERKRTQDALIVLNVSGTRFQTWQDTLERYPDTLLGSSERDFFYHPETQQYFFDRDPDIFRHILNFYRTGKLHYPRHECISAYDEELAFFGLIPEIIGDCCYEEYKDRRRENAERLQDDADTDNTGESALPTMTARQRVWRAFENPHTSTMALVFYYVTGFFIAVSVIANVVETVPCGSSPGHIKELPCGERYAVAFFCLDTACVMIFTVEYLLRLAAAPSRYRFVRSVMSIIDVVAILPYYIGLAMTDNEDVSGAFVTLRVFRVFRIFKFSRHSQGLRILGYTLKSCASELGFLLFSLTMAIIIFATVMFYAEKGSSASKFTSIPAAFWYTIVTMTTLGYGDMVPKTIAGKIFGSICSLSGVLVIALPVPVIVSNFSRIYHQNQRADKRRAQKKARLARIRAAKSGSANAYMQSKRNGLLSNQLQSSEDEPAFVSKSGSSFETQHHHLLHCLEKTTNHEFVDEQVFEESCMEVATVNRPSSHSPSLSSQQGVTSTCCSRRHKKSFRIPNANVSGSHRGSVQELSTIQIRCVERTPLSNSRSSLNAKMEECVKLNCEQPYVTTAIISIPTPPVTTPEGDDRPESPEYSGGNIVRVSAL
Conditions: mean ± SEM.

Experiment [2] addresses T2, rKv4.2 M279A (Rattus norvegicus, UniProt Q63881, M279A).
T2 construct: expressed in transfected cells; host or cells: HEK293T
T2 sequence (Q63881 1-630 M279A): T1 sequence (Q63881 1-630 V278A) with A278V, M279A
Conditions: mean ± SEM.

Experiment [3] has as its target T3, rKv4.2 D281K (Rattus norvegicus, UniProt Q63881, D281K).
T3 construct: expressed in transfected cells; host or cells: HEK293T
T3 sequence (Q63881 1-630 D281K): T1 sequence (Q63881 1-630 V278A) with A278V, D281K
Conditions: mean ± SEM.

For experiment [4], the target named is T4, rKv4.2 T280A (Rattus norvegicus, UniProt Q63881, T280A).
T4 construct: expressed in transfected cells; host or cells: HEK293T
T4 sequence (Q63881 1-630 T280A): T1 sequence (Q63881 1-630 V278A) with A278V, T280A
Conditions: mean ± SEM.

Experiment [5] addresses T5, hNav1.7 (Homo sapiens, UniProt Q15858).
T5 construct: expressed in transfected cells; host or cells: HEK293T
As to conditions: whole-cell patch clamp, mean ± S.E.M., SEM. For orientation: Patch clamp records ionic current or voltage across a cell membrane.

Setting [6] is: HEK293T, hNav1.7 with β1 and β2, held at -90 mV, step to 0 mV, n = 3-7, read-out: IC50 for hNav1.7.

Changes are numbered by the printed parent chain. Like-named read-outs stand apart in the source and are kept apart here. Positions of bridges follow the written chain, without caps; N, C: chain ends. Residues, ends and D or L forms follow the SMILES beside them.

T5 sequence (O60939 30-215): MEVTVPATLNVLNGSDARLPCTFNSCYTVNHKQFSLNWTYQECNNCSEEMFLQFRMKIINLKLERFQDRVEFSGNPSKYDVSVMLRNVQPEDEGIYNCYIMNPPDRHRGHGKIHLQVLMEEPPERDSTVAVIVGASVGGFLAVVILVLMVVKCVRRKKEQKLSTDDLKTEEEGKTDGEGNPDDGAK
T5 sequence (Q15858 other isoform, or with tags, fused parts or gaps): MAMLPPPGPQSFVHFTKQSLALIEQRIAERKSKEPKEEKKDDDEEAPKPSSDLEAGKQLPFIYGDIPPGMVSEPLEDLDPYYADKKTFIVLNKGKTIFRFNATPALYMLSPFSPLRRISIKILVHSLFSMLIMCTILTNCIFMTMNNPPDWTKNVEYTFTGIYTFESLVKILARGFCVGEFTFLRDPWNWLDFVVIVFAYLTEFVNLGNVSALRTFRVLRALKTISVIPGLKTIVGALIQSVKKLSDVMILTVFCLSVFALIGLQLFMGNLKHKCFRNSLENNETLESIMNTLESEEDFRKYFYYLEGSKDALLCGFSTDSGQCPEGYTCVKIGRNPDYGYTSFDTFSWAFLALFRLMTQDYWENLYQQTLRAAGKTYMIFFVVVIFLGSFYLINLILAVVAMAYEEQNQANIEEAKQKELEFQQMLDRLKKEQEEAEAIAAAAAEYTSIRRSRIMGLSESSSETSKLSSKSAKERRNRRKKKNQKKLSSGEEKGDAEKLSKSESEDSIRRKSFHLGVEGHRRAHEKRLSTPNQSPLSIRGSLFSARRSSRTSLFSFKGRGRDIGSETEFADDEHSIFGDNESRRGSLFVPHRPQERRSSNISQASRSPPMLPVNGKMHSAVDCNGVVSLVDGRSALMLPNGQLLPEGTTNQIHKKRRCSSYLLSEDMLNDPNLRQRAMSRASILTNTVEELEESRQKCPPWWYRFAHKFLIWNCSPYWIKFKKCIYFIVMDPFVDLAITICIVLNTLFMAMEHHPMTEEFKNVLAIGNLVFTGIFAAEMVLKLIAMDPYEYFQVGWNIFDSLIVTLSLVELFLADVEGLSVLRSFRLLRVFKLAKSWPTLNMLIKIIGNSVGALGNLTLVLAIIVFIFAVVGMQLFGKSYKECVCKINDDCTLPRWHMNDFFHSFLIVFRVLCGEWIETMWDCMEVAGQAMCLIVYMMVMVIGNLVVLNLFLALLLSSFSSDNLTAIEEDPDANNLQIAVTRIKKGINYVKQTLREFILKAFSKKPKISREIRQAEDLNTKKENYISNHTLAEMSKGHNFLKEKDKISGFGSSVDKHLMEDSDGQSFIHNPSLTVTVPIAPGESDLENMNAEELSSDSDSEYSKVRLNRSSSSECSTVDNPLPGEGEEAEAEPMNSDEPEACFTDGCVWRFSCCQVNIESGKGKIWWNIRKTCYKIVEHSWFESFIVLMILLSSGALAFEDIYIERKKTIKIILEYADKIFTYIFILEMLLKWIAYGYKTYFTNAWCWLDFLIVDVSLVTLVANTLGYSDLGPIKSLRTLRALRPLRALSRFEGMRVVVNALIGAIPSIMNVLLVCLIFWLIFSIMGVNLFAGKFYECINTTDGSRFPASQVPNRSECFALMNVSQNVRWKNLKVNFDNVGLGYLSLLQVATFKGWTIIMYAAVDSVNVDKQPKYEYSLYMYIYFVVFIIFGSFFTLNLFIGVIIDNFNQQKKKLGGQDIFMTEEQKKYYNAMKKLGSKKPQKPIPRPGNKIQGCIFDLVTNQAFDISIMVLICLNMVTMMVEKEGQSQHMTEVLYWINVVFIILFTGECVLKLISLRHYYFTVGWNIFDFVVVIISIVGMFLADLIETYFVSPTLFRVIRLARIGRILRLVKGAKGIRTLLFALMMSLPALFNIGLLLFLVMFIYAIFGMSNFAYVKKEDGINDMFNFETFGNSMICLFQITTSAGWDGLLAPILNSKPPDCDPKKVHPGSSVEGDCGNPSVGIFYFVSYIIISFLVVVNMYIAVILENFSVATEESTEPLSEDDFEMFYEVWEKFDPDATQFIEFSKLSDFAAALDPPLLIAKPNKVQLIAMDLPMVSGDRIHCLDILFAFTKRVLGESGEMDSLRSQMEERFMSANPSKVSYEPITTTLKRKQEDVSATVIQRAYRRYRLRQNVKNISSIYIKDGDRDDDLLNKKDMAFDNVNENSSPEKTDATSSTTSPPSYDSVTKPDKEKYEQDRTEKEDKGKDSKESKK
T5 sequence (Q07699 19-218, further chain): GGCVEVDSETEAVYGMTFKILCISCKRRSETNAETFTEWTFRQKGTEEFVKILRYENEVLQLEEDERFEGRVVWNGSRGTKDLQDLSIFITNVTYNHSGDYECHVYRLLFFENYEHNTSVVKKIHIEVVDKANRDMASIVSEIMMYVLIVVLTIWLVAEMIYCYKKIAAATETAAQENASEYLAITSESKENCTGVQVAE

`CC(C)C[C@@H]1NC(=O)[C@H](Cc2c[nH]c3ccccc23)NC(=O)[C@H](Cc2ccc(O)cc2)NC(=O)[C@H](CCCNC(=N)N)NC(=O)[C@@H](NC(=O)[C@@H](N)CCC(=O)O)CSSC[C@@H]2NC(=O)[C@@H]3CSSC[C@@H](C(=O)N[C@H](C(=O)N[C@@H](Cc4c[nH]c5ccccc45)C(=O)N[C@@H](CC(=O)O)C(=O)N[C@@H](Cc4c[nH]c5ccccc45)C(=O)N[C@H](C(=O)N[C@@H](Cc4ccccc4)C(N)=O)[C@@H](C)O)C(C)C)NC(=O)[C@H](Cc4c[nH]c5ccccc45)NC(=O)CNC(=O)[C@H](Cc4c[nH]cn4)NC(=O)[C@H](CCCCN)NC(=O)[C@@H]4CCCN4C(=O)[C@H](CO)NC(=O)[C@H](CSSC[C@H](NC(=O)[C@H]([C@@H](C)O)NC(=O)CNC1=O)C(=O)N[C@@H](CO)C(=O)N[C@@H](CCCCN)C(=O)N[C@@H]([C@@H](C)O)C(=O)NCC(=O)N[C@@H](CC(=O)O)C(=O)N3)NC(=O)[C@H](CO)NC(=O)[C@H](CC(C)C)NC(=O)[C@H](Cc1c[nH]cn1)NC(=O)[C@H](CO)NC2=O` [HNTX-VIIa] (H-ECRYWLGTCSKTGDCCSHLSCSPKHGWCVWDWTF-NH2; disulfide 2-16, 9-21, 15-28): the half-inhibitory concentration (IC50) in experiment [1] worked out at 53 ± 6 nM; in experiment [2], 42 ± 6 nM; in experiment [3], 33 ± 6 nM; in experiment [4] it was 13 ± 2 nM; in experiment [5] (native toxin isolated from venom, n = 5, read-out: IC50 against hNav1.7, native HNTX-VIIa), 50.6 ± 4.6 nM; in experiment [5] (setting [6]), 80.4 ± 19.6 nM.
On to `CC[C@H](C)[C@@H]1NC(=O)[C@@H]2CSSC[C@@H]3NC(=O)[C@H](C(C)C)NC(=O)[C@H](CC(C)C)NC(=O)[C@H](CC(N)=O)NC(=O)[C@@H]4CCCN4C(=O)[C@H](CCCNC(=N)N)NC(=O)[C@H](CSSC[C@H](NC(=O)[C@@H](N)CC(=O)O)C(=O)N[C@@H](CC(C)C)C(=O)NCC(=O)N[C@@H](C)C(=O)N[C@@H](Cc4ccccc4)C(=O)N[C@@H](CCCNC(=N)N)C(=O)N[C@@H](CCCCN)C(=O)N2)NC(=O)[C@H](CSSC[C@@H](C(=O)N[C@@H](CCCCN)C(=O)N[C@@H](Cc2ccc(O)cc2)C(=O)N[C@H](C(=O)N[C@@H](Cc2ccccc2)C(N)=O)C(C)C)NC(=O)[C@H](Cc2c[nH]c4ccccc24)NC(=O)[C@H](CCCNC(=N)N)NC(=O)[C@H](Cc2cnc[nH]2)NC(=O)[C@H](CC(C)C)NC(=O)[C@H](CCCNC(=N)N)NC(=O)[C@H](CO)NC3=O)NC(=O)[C@H](CCCCN)NC(=O)[C@H](CC(=O)O)NC(=O)[C@H](CC(N)=O)NC(=O)[C@H](CC(=O)O)NC(=O)[C@@H]2CCCN2C1=O` [mGpTx1] (H-DCLGAFRKCIPDNDKCCRPNLVCSRLHRWCKYVF-NH2; disulfide 2-17, 9-23, 16-30), for which the IC50 in experiment [1] amounted to 2850 ± 1310 nM; in experiment [2] it was 16500 ± 9010 nM; in experiment [3] it was 320 ± 45 nM; in experiment [4], 150 ± 32 nM; in experiment [5] (setting [6]), 8 ± 1.2 nM.

By IC50 is commonly meant the concentration that inhibits the measured activity by half.
